According to PubChem BioAssay (NCI):
“And” between values parts separate entries of the source, which are not always exact repeats. Identical values can stand only once.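 Exposure lasted 48 hours, with cells grown in 96-well plates and compounds tested at five concentrations. GI50 is the concentration that inhibits growth by half. The concentration for full growth arrest is given as TGI.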

Experiments:
Assay in all cases: DTP human tumour cell line panel, 48 h
[1] = tested on: OVCAR-4 ovarian
[2] = tested on: PC-3 prostate
[3] = tested on: CCRF-CEM leukemia
[4] = tested on: KM12 colon
[5] = tested on: NCI-H23 lung
[6] = tested on: T-47D breast
[7] = tested on: NCI/ADR-RES ovarian
[8] = tested on: SF-268 CNS
[9] = tested on: HL-60(TB) leukemia
[10] = tested on: M14 melanoma

| Structure (SMILES) | TGI [1] | TGI [2] | TGI [3] [µM] | TGI [4] | TGI [5] | TGI [6] | TGI [7] [µM] | TGI [8] | TGI [9] | TGI [10] | GI50 [1] | GI50 [2] | GI50 [3] | GI50 [4] | GI50 [6] | GI50 [9] | GI50 [10] | GI50 [5] | GI50 [7] [µM] |
| --- | --- | --- | --- | --- | --- | --- | --- | --- | --- | --- | --- | --- | --- | --- | --- | --- | --- | --- | --- |
| CCOC(=O)c1cnc(-n2[nH]c(C)c(CCO)c2=O)[nH]c1=O | > 100 µM | > 100 µM | > 100 | > 100 µM | > 100 µM | > 100 µM | > 100 | > 100 µM | > 100 µM | > 100 µM |  |  |  |  |  |  |  |  |  |
| CC1=NN(c2nc(N)nc(-c3ccccc3S(N)(=O)=O)n2)C(C)(C)C1 | > 100 µM | > 100 µM | > 100 | > 100 µM | > 100 µM | > 100 µM | 52.5 | > 100 µM | 41.2 µM | 87.2 µM |  |  |  |  |  |  |  |  |  |
| O=C(Cn1c(=O)oc2ccc(C(=O)c3ccc(F)cc3)cc21)c1ccc([N+](=O)[O-])cc1 | > 100 µM | 85.9 µM | > 100 | 87 µM | > 100 µM | > 100 µM | > 100 | > 100 µM | 60 µM | > 100 µM |  |  |  |  |  |  |  |  |  |
| C=C(C)[C@@]1(O)O[C@H]2C[C@@]3(C)OC(=CC3=O)/C(C)=C\[C@@H]3OC(=O)[C@@]1(C)[C@H]32 | > 100 µM | 78.4 µM | 24.1 | 32.5 µM | > 31.6 µM | 59.2 µM | > 100 | 88.2 µM | > 47.2 µM | 37.5 µM |  |  |  |  |  |  |  |  |  |
| O=C1c2ccccc2C2CNC1(O)c1ccccc12 (stereo unspecified) | > 100 µM | > 100 µM | > 100 | > 100 µM | > 100 µM | > 100 µM | > 100 | > 100 µM | > 100 µM | > 100 µM |  |  |  |  |  |  |  |  |  |
| O=C1Oc2ccccc2C(=O)/C1=C/N1C(=O)N/C(=C\c2ccccc2O)C1=O | > 100 µM | > 100 µM | > 100 | > 100 µM | > 100 µM | > 85.5 µM | > 100 | > 100 µM | > 100 µM | > 100 µM |  |  |  |  |  |  |  |  |  |
| Cc1[nH]c2ncn(/N=C/c3ccccc3O)c(=N)c2c1Cc1ccccc1 | > 100 µM | 46.6 µM | > 100 | > 100 µM | > 100 µM | > 100 µM | > 100 | > 100 µM | 66.8 µM | > 100 µM |  |  |  |  |  |  |  |  |  |
| O=c1cc(CNC2CCCC2)[nH]c(=O)[nH]1 | > 100 µM | > 100 µM | > 100 | > 100 µM | > 100 µM | > 100 µM | > 100 | > 100 µM | > 100 µM | > 100 µM |  |  |  |  |  |  |  |  |  |
| O=c1[nH]c(=O)n(C2CC(O)C(CO)O2)cc1I (stereo unspecified) | > 100 µM | > 100 µM | > 100 | > 100 µM | > 100 µM | > 100 µM | > 100 | > 100 µM | > 100 µM | > 100 µM |  |  |  |  |  |  |  |  |  |
| COc1c2cc([N+](=O)[O-])cc1CNC(=O)CN1CCOCCOCCN(CCOCCOCC1)CC(=O)NC2 | > 100 µM | > 100 µM | > 100 | > 100 µM | > 100 µM | > 100 µM | > 100 | > 100 µM | > 100 µM | > 100 µM |  |  |  |  |  |  |  |  |  |
| O=S(=O)(Oc1ccc2oc3ccccc3c2c1-c1c(OS(=O)(=O)C(F)(F)F)ccc2oc3ccccc3c12)C(F)(F)F | > 100 µM | > 100 µM | > 100 | > 100 µM | > 100 µM | > 100 µM | > 100 | > 100 µM | > 100 µM | > 100 µM |  |  |  |  |  |  |  |  |  |
| C=C(C)C(=O)CC[C@@H](C)[C@H]1[C@@H](OC2OC(CO)C(O)C(O)C2O)C[C@@]2(C)[C@@H]3C[C@H](O)C4C(C)(C)[C@@H](OC5OC(CO)C(O)C(O)C5O)CC[C@@]45C[C@@]35CC[C@]12C (stereo partly specified) | > 100 µM | > 100 µM | > 100 | > 100 µM | > 100 µM | > 100 µM | > 100 | > 100 µM | > 100 µM | > 100 µM |  |  |  |  |  |  |  |  |  |
| O=C(Cc1ccccc1)NCCc1ccc(O)c(O)c1 | 28 µM | > 100 µM | 24.3 | > 100 µM | > 100 µM | > 100 µM | > 100 | > 100 µM | 51.9 µM | > 100 µM |  |  |  |  |  |  |  |  |  |
| COC(=O)c1c2c(cc3c1CC1(Cc4ccccc4C1=O)C3)CCC2 (stereo unspecified) | > 100 µM | > 100 µM | > 100 | 61.5 µM | > 100 µM | > 100 µM | 79.3 | > 100 µM | 53.1 µM | > 100 µM |  |  |  |  |  |  |  |  |  |
| O=C1NC(N/N=C\C(O)C(O)C(O)CO)=N/C1=C/c1ccccc1 (stereo unspecified) | > 100 µM and 79.8 µM | > 100 µM | > 100 | > 100 µM | > 100 µM | > 100 µM | > 100 | > 100 µM | > 100 µM | > 100 µM and 76.9 µM | 84.1 µM and 23.4 µM | > 100 µM and 48.9 µM | 65.9 µM and 32.7 µM | > 100 µM and 28.1 µM | > 100 µM and 49.2 µM | > 100 µM and 41.2 µM | > 100 µM and 30.4 µM |  |  |
| COc1ccc2oc(=N)c(C(=O)Nc3cccc4ccccc34)cc2c1 | 40.3 µM | 31.1 µM | > 100 | > 100 µM | > 100 µM | > 100 µM | > 100 | > 100 µM | > 100 µM | > 100 µM |  |  |  |  |  |  |  |  |  |
| C1=C\SS/C=C\SS/C=C\SS/C=C\SS/1 | > 100 µM | > 100 µM | 61.9 | > 100 µM | > 100 µM | > 100 µM | > 100 | > 100 µM | 58.1 µM | > 100 µM |  |  |  |  |  |  |  |  |  |
| CCc1nn(CN2CCN(C)CC2)c(=S)n1/N=C\c1ccc(-c2ccc([N+](=O)[O-])cc2)o1 | > 100 µM | > 100 µM | > 100 | > 100 µM | > 100 µM | 68.5 µM | 73.2 | > 100 µM | > 100 µM | > 100 µM |  |  |  |  |  |  |  |  |  |
| CCOC(=O)c1cccc(NC(=O)CCl)c1 | 8.31 µM | 18.1 µM | 10.6 | 21.4 µM | 13.1 µM | 10.1 µM | 22.7 | 5.69 µM | 13.2 µM | 24.9 µM |  |  |  |  |  |  |  |  |  |
| CC[n+]1cnc(N)c2c(-c3ccc(Cl)cc3)cn(-c3ccc(C)cc3)c21 | 15.6 µM | 25 µM | 22.7 | 30.7 µM | 35.4 µM | 32.2 µM | 26.5 | 26.7 µM | 44.3 µM | 4.14 µM |  |  |  |  |  |  |  |  |  |
| CCCCNC1CCC2(SCCS2)c2[nH]c3ccccc3c21 (stereo unspecified) | > 100 µM | > 67.3 µM | > 59.7 | 36.9 µM | > 100 µM | 6.23 µM | > 100 | > 100 µM | 8.05 µM | > 65.1 µM |  |  |  |  |  |  |  |  |  |
| c1ccc(CNC2CC(NCc3ccccn3)CC(NCc3ccccn3)C2)nc1 (stereo unspecified) | 9.26 µM and 8.37 µM and 40.9 µM | 5.68 µM and 8.75 µM and 3.98 µM |  | 3.8 µM and 6 µM and 4.07 µM | 7.38 µM and 23.4 µM and 3.89 µM | 21.5 µM and 25 µM and 25.6 µM | > 100 | 15.7 µM and 13.3 µM and 16.3 µM | 10.5 µM and 10.2 µM | 10.3 µM and 8.32 µM and 5.31 µM |  | 2.24 µM and 4.59 µM and 2.02 µM | 4.64 µM | 2.05 µM | 6.64 µM | 2.78 µM and 1.23 µM | 3.15 µM and 1.39 µM and 2.35 µM | 2.7 µM and 6.69 µM and 1.99 µM | > 100 |
| CN1C/C(=C\c2cccs2)C2=NC(=S)NC(c3cccs3)C2C1 (stereo unspecified) | > 100 µM | > 100 µM | 53.5 | > 100 µM | > 100 µM | 84.5 µM | > 100 | > 100 µM | 19.1 µM | > 100 µM |  |  |  |  |  |  |  |  |  |
| COC(=O)[C@H](Cc1ccccc1)NC(=O)c1ccc(CNC(=O)/C=C/c2ccc(-c3ccccc3)cc2)cc1 | > 100 µM | > 100 µM | > 100 | > 100 µM | > 100 µM | > 100 µM | > 100 | > 100 µM | > 100 µM | > 100 µM |  |  |  |  |  |  |  |  |  |
| O=C(O)[C@H]1[C@@H](C2CCCCC2)O[C@@H](C2CCCCC2)O[C@H]1C(F)(F)F | > 100 µM | 32.1 µM | 47.7 | 46.4 µM | 42.6 µM | > 100 µM | > 100 | 44.2 µM | 62.6 µM | 39.4 µM |  |  |  |  |  |  |  |  |  |
| CCCC(=O)O | > 18700 µM | > 18700 µM | > 18700 | > 18700 µM | > 18700 µM | 9400 µM | > 18700 | > 18700 µM | > 18700 µM | > 18700 µM |  |  |  |  |  | 1120 µM |  |  | 1460 |
| COC(=O)N1CC2(CO)C3CC=C(C(=O)Nc4ccccc4Br)C2C1C3Br (stereo unspecified) | > 50 µM | > 50 µM | > 50 | > 50 µM | > 50 µM | > 50 µM | > 50 | > 50 µM | > 50 µM | > 50 µM |  |  |  |  |  |  |  |  |  |
